Test systems include CAKI-1 renal; 786-0 renal; SR leukemia; TK-10 renal; MDA-MB-435; ACHN renal; NCI/ADR-RES ovarian; T-47D breast; OVCAR-3 ovarian; CCRF-CEM leukemia.
Common to all, as to experiment: growth of human tumour cells (NCI), 48 h

Structures are written as SMILES.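 Test compounds were applied to cells in 96-well plates for 48 hours at 5 doses. Abbreviation: GI50, concentration required for 50% inhibition of growth. TGI: concentration producing complete growth inhibition.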

Take `CCN1CCN(CC(=O)Nc2nc3ccc(NCc4ccc(Br)cc4)cc3s2)CC1`: the GI50 in the assay with CAKI-1 renal is 1.84 µM; with 786-0 renal it was 1.85 µM; with SR leukemia, 2.42 µM; in the assay with TK-10 renal, 2.24 µM; in the assay with MDA-MB-435, 1.69 µM; with ACHN renal, 2.03 µM. Further, the GI50 is 3.3 µM in the assay with NCI/ADR-RES ovarian and 1.75 µM in the assay with T-47D breast. The TGI in the assay with CAKI-1 renal was 4.55 µM; in the assay with 786-0 renal, 3.5 µM; in the assay on SR leukemia, > 100 µM; with TK-10 renal, 4.55 µM; in the assay with MDA-MB-435, 3.23 µM; with ACHN renal, 4.4 µM. The TGI in the assay with NCI/ADR-RES ovarian is > 100 µM; in the assay on T-47D breast, 4.55 µM.
Turning to `c1cc(OCCCCCOc2cccc(-c3nc4ccccc4[nH]3)c2)cc(-c2nc3ccccc3[nH]2)c1`, the GI50 is 1.79 µM in the assay with CAKI-1 renal; 2.68 µM in the assay with 786-0 renal; 3.88 µM with TK-10 renal; 2.26 µM with MDA-MB-435; 1.53 µM in the assay on OVCAR-3 ovarian; 2.35 µM in the assay with ACHN renal. Further, the GI50 in the assay with NCI/ADR-RES ovarian is 1.99 µM; with T-47D breast, 0.458 µM. In addition, the TGI is 8.65 µM in the assay with CAKI-1 renal; > 100 µM in the assay on 786-0 renal; > 100 µM in the assay with TK-10 renal; 6.74 µM with MDA-MB-435; > 100 µM in the assay on OVCAR-3 ovarian; 46.2 µM with ACHN renal. Moreover, the TGI was 7.91 µM with NCI/ADR-RES ovarian and 3.18 µM in the assay on T-47D breast.
Turning to `CN(C)[C@@H]1C(=O)C(C(=O)NCc2nc3[nH]cnc(=S)c3[nH]2)=C(O)[C@@]2(O)C(=O)C3=C(O)c4c(O)cccc4[C@@](C)(O)[C@H]3C[C@@H]12`, the GI50 in the assay with CAKI-1 renal is 3 µM; in the assay with 786-0 renal, 3.78 µM; with SR leukemia it was 1.92 µM; with OVCAR-3 ovarian it was 2.52 µM; with ACHN renal, 16.1 µM; in the assay on NCI/ADR-RES ovarian, 6.13 µM. Moreover, the GI50 in the assay on T-47D breast is 1.95 µM; with CCRF-CEM leukemia, 1.02 µM. For the same molecule, the TGI in the assay on CAKI-1 renal, with 786-0 renal, in the assay on SR leukemia, in the assay with OVCAR-3 ovarian, with ACHN renal and in the assay on NCI/ADR-RES ovarian was > 100 µM throughout. In addition, the TGI with T-47D breast and with CCRF-CEM leukemia was > 100 µM each time.
Consider `CCCCCCCCCCN=C(N)c1ccc(N2CCN(c3ccc(C(N)=NCCCCCCCCCC)cc3)CC2)cc1`, for which the GI50 in the assay with CAKI-1 renal was 17.9 µM; in the assay with 786-0 renal it was 16 µM; in the assay on SR leukemia it was > 50 µM; in the assay on TK-10 renal, 8.29 µM; in the assay on MDA-MB-435, 2.83 µM; in the assay with OVCAR-3 ovarian, 2.23 µM. Further, the GI50 in the assay on ACHN renal is 15.7 µM; with NCI/ADR-RES ovarian, > 50 µM; with T-47D breast, 5.91 µM. Moreover, the TGI is > 50 µM with CAKI-1 renal; > 50 µM in the assay on 786-0 renal; > 50 µM with SR leukemia; > 50 µM in the assay with TK-10 renal; 12.6 µM in the assay on MDA-MB-435; 8.57 µM in the assay with OVCAR-3 ovarian. Besides, the TGI with ACHN renal was > 50 µM; in the assay with NCI/ADR-RES ovarian, > 50 µM; with T-47D breast it was 18.8 µM.
`Oc1c(Br)cc(Cl)cc1C(c1cc(Cl)cc(Br)c1O)C(Cl)(Cl)Cl`: the GI50 is 2.09 µM in the assay on CAKI-1 renal; 2.96 µM in the assay with 786-0 renal; 4.3 µM in the assay on TK-10 renal; 2.94 µM in the assay on MDA-MB-435; 3.14 µM with OVCAR-3 ovarian; 3.06 µM in the assay with ACHN renal. Moreover, the GI50 is 2.48 µM in the assay with NCI/ADR-RES ovarian, 2.84 µM in the assay on T-47D breast and 0.996 µM with CCRF-CEM leukemia. Besides, the TGI with CAKI-1 renal worked out at 8.73 µM; in the assay on 786-0 renal it was 10.3 µM; with TK-10 renal it was 13.3 µM; with MDA-MB-435, 10.1 µM; in the assay on OVCAR-3 ovarian it was 10.1 µM; with ACHN renal it was 9.81 µM. Moreover, the TGI in the assay with NCI/ADR-RES ovarian was 8.66 µM; in the assay on T-47D breast, 11.1 µM; with CCRF-CEM leukemia, 9.71 µM.
Turning to `O=C1Nc2ccc(Cl)cc2/C1=N/c1nc(-c2ccc(Cl)cc2)cs1`, the GI50 in the assay on 786-0 renal is 1.46 µM; in the assay with SR leukemia, 2.74 µM; in the assay with TK-10 renal it was 2.88 µM; in the assay with OVCAR-3 ovarian, 1.3 µM; with T-47D breast, 0.938 µM; with CCRF-CEM leukemia, 2.28 µM. Also, the TGI with 786-0 renal is 3.7 µM; in the assay on SR leukemia, > 100 µM; in the assay with TK-10 renal it was 6.13 µM; with OVCAR-3 ovarian, 4.56 µM; in the assay with T-47D breast it was 5.8 µM; in the assay on CCRF-CEM leukemia it was > 100 µM.
Regarding `COc1cc(/C=C/c2cc(/C=C/c3ccc(O)c(OC)c3)n(C(=O)Nc3ccc(C)cc3)n2)ccc1O`, the GI50 in the assay with CAKI-1 renal was 0.311 µM; in the assay on 786-0 renal it was 0.412 µM; in the assay on SR leukemia it was 0.0268 µM; in the assay on TK-10 renal, 0.874 µM; with MDA-MB-435 it was 0.115 µM; with OVCAR-3 ovarian, 0.417 µM. Also, the figures for the GI50 in the assay with ACHN renal, in the assay on NCI/ADR-RES ovarian and with T-47D breast were 0.396 µM, 0.429 µM and 1.14 µM, respectively. The TGI in the assay on CAKI-1 renal was 6.95 µM; in the assay on 786-0 renal, 1.81 µM; in the assay with SR leukemia it was 0.15 µM; with TK-10 renal, 5.81 µM; in the assay on MDA-MB-435, 0.391 µM; with OVCAR-3 ovarian, 1.99 µM. Also, the TGI with ACHN renal is 7.42 µM; in the assay with NCI/ADR-RES ovarian, > 100 µM; in the assay on T-47D breast, 3.33 µM.
For the molecule `O=[N+]([O-])c1ccc(/C=C(/c2ccc([N+](=O)[O-])o2)S(=O)(=O)c2ccccc2)cc1`, the TGI with CAKI-1 renal is > 100 µM; with 786-0 renal it was > 100 µM; in the assay on SR leukemia, 36.5 µM; in the assay on TK-10 renal, > 100 µM; in the assay on MDA-MB-435, > 100 µM; with OVCAR-3 ovarian it was > 100 µM. Also, the TGI in the assay on ACHN renal, with NCI/ADR-RES ovarian and in the assay on T-47D breast was > 100 µM throughout.
Regarding `COc1ccc(-c2c(Nc3ccccn3)nc3c(C4=CCCCC4)c(-c4ccccc4)[nH]n3c2=O)cc1`, the GI50 in the assay with CAKI-1 renal is 2.48 µM; with 786-0 renal, 2.63 µM; with TK-10 renal it was 4.82 µM; in the assay with MDA-MB-435 it was 2.71 µM; in the assay on OVCAR-3 ovarian, 1.94 µM; with ACHN renal it was 2 µM. In addition, the GI50 was 2.57 µM in the assay with NCI/ADR-RES ovarian, 2.22 µM in the assay on T-47D breast and 1.22 µM in the assay with CCRF-CEM leukemia. In addition, the TGI with CAKI-1 renal was 15.1 µM; in the assay with 786-0 renal it was 16.3 µM; with TK-10 renal, 19.1 µM; in the assay with MDA-MB-435, > 100 µM; with OVCAR-3 ovarian it was > 100 µM; in the assay on ACHN renal, 24.9 µM. Moreover, the TGI is > 100 µM with NCI/ADR-RES ovarian, 17.3 µM in the assay on T-47D breast and 6.58 µM in the assay on CCRF-CEM leukemia.
As to `C#CCCCCCC(=O)N[C@H]1C=C[C@@H]2/C=C(C)/C=C/[C@@H](C)[C@H]([C@H](C)[C@H](O)[C@@H](C)NC(C)=O)OC(=O)/C=C/C=C(C)\C=C\[C@]2(C)C1`, the GI50 with 786-0 renal is < 0.004 µM; in the assay with SR leukemia it was < 0.004 µM; with TK-10 renal it was 0.0158 µM; in the assay on OVCAR-3 ovarian, 0.00889 µM; with ACHN renal, < 0.004 µM; in the assay on NCI/ADR-RES ovarian, 0.0258 µM. The results for the GI50 with T-47D breast and with CCRF-CEM leukemia were < 0.004 µM and 0.479 µM, respectively. Besides, the TGI with 786-0 renal is > 40 µM; with SR leukemia it was 9.53 µM; in the assay on TK-10 renal, > 40 µM; in the assay on OVCAR-3 ovarian, > 40 µM; with ACHN renal, > 40 µM; in the assay on NCI/ADR-RES ovarian, > 40 µM. The TGI in the assay on T-47D breast was 13.6 µM; with CCRF-CEM leukemia, > 40 µM.
As to `CC1(C)CC2=NO[Se]3=C2C(=NO3)C1`, the TGI in the assay on CAKI-1 renal came to 11.4 µM; in the assay with 786-0 renal, 12.4 µM; in the assay with TK-10 renal, 19.5 µM; in the assay on MDA-MB-435, 15.5 µM; in the assay on OVCAR-3 ovarian it was 5.37 µM; in the assay with ACHN renal it was 3.61 µM. In addition, the TGI with T-47D breast amounted to 24.7 µM; in the assay with CCRF-CEM leukemia it was 30.4 µM.
In the case of `CN(C)CCCC1(c2ccc(F)cc2)OCc2cc(-c3csc4ccccc34)ccc21` (centres undefined), the GI50 was 1.62 µM with CAKI-1 renal; 1.84 µM with 786-0 renal; 1.6 µM in the assay with TK-10 renal; 1.73 µM in the assay on MDA-MB-435; 1.73 µM with OVCAR-3 ovarian; 1.64 µM with ACHN renal. Also, the GI50 with NCI/ADR-RES ovarian is 1.59 µM; in the assay with T-47D breast it was 1.71 µM. Further, the TGI is 3.05 µM with CAKI-1 renal; 3.63 µM in the assay with 786-0 renal; 3.16 µM with TK-10 renal; 3.19 µM in the assay on MDA-MB-435; 3.26 µM with OVCAR-3 ovarian; 3 µM in the assay on ACHN renal. Moreover, the figures for the TGI in the assay with NCI/ADR-RES ovarian and with T-47D breast were 3.07 µM and 3.7 µM, respectively.
With `Cc1cccc(Oc2ccc(Nc3ncnc4ccc(NC(=O)CN(C)C)cc34)cc2Cl)c1`, the GI50 with CAKI-1 renal is 1.1 µM; in the assay with 786-0 renal, 1.59 µM; in the assay on TK-10 renal, 1.1 µM; in the assay on MDA-MB-435, 1.67 µM; in the assay on OVCAR-3 ovarian, 1.16 µM; in the assay with ACHN renal it was 0.804 µM. The values for the GI50 with NCI/ADR-RES ovarian, with T-47D breast and in the assay on CCRF-CEM leukemia were 2.83 µM, 1.08 µM and 2.54 µM, respectively. Also, the TGI in the assay with CAKI-1 renal stood at 2.97 µM; in the assay with 786-0 renal, 3.16 µM; with TK-10 renal it was 3.57 µM; in the assay on MDA-MB-435, 3.14 µM; with OVCAR-3 ovarian it was 3 µM; in the assay on ACHN renal, 4 µM. In addition, the TGI stood at 14.2 µM with NCI/ADR-RES ovarian, 4.59 µM with T-47D breast and 8.14 µM in the assay with CCRF-CEM leukemia.

The values are drawn from PubChem BioAssay (NCI).
